Test results from patent publication US10905704B2, “Agents and methods using thereof for the prevention and treatment of stem cell muscle disorders” (ECOLE POLYTECHNIQUE FEDERALE DE LAUSANNE (EPFL), priority 2015, dated 2021).

Legend:
MuSCs [1] = assay: Myogenesis (colony formation) assay; assay type: cell-based, C57BL/6J mice; conditions: MuSCs isolated from NR-treated aged mice
Procedure: Myogenesis assay. Five MuSCs were sorted directly into wells of a Matrigel-coated 96-well cell culture plate, containing MuSC growth medium (F10, 20% FBS, 2.5 ng/ml bFGF, 1×pen/strep), using the automated cell deposition unit (ACDU) of the FACSAria II instrument (BD Biosciences). Cells were cultured at 37° C. for 5 days. Cell colony formations were counted using the DM IL LED Inverted Microscope (Leica) after fixation in freshly made or defrosted 4% paraformaldehyde (PFA) for 10 min.

C2C12 myoblasts = assay: Western blot of UPRmt markers, prohibitins and cell cycle proteins in NR-treated C2C12 myoblasts; assay type: cell-based, mouse
Procedure: Western blotting performed as described in Example 3. The following primary antibodies were used: anti-HSP60 (Enzo Life Science); anti-β-actin (Sigma); anti-PHB (Biolegend); anti-PHB2 (Santa Cruz); anti-CKD4 (Novus biologicals); anti-CCND1 (Santa Cruz); anti-CCND3 (Santa Cruz); anti-HSP90 (BD Biosciences); HSP70 (Abcam); and anti-CLPP (Sigma). Cell culture and treatments were prepared according to description of Example 3. C2C12 mouse myoblasts were grown in DMEM (4.5 g/1 glucose, Gibco) supplemented with 10% FBS and penicillin/streptomycin (1×, Gibco). Cell transformation with Phb (Santa Cruz) and Phb2 shRNA (Santa Cruz) were performed using jetPEI DNA transfection kit (Polyplus), according to manufacturer's instructions. Cells were treated with 1 mM NR or PBS for 6 hours before cell harvesting or fixation. Respirometry on C2C12 myoblasts. Basal and uncoupled oxygen consumption rates (OCRs) and the extracellular acidification rate (ECAR) was measured using the Seahorse extracellular flux bioanalyzer (XF96, Seahorse Bioscience Inc.). To uncouple mitochondria, 5 uM of FCCP was injected after a basal respiration measurement. All measurements were performed in triplicates and results were normalized to total protein amount (C2C12 cells), assessed using a Bradford kit (Bio-Rad).

MuSCs [2] = assay: MuSC numbers in NR-treated Mdx mice (FACS, PAX7 immunostaining); assay type: in vivo
Procedure: Animals. Young (1 month old) and aged (20-24 months old) C57BL/6JRj mice, purchased from Janvier Labs, and five weeks old male C57BL/10SnJ mice or C57BL/10ScSn-Dmdmdx/J, purchased from The Jackson Laboratory, were fed with pellets containing vehicle or NR (400 mg/kg/day) for 6-8 weeks. The pellets were prepared by mixing powdered chow diet (D12450B, Research Diets Inc.) with water or with NR dissolved in water. Pellets were dried under a laminar flow hood for 48 hours. All mice were housed in micro-isolator cages in a room illuminated from 7:00 am -7:00 pm with ad libitum access to diet and water.
FACS based muscle stem cell isolation. Gastrocnemius, soleus, quadriceps, and tibialis anterior muscles from both limbs were excised and transferred into PBS on ice. All muscles were trimmed, minced and digested with 0.1 mg/ml of type II collagenase (Sigma) in PBS for 15 min at 37° C. Samples were then centrifuged at 750 g for 5 min and further digested in 1 mg/ml of collagenase/dispase (Roche) for 30 mins at 37° C. Muscle slurries were sequentially filtered through 100, 70 and 40 μm cell strainers. […] Stained cells were analysed and sorted using the FACSAria II instrument (BD Biosciences). […]

MuSCs [3] = assay: MuSC autofluorescence (405/450) as measure of relative NAD(P)H, cellular redox ratio; assay type: cell-based; conditions: MuSCs isolated from NR-treated Mdx mice, FIG. 6G-I
Procedure: Determining cellular redox ratio. NAD+ and NADH quantification and ratio were measured using a kit from Biovision (Milpitas, Calif.), following providers' instructions. With continuous muscle regeneration, MuSCs in Mdx mice are abnormally active at a young age, leading to MuSC depletion and dysfunction later in life. […] Thus the self-renewal capacity of Mdx mouse MuSCs was tested. The cellular redox ratio decreases as MuSCs differentiate (Fulco et al., 2003, Molecular Cell, 12: 51), which can be detected by the increase in 405/450 autofluorescence (Quinn et al., 2013, Scientific Reports, 3: 3432). […] We then performed β-galactosidase staining on primary MuSCs isolated from Mdx mice, with or without NR treatment, and cultured these cells with NR or vehicle in vitro. […] The prevention of MuSCs senescence in NR-treated Mdx mice was confirmed by the attenuation of γH2AX and cleaved caspase-3 immunostaining (FIG. 6K). To evaluate MuSC function, CTX-induced muscle regeneration was examined in NR-treated mice.

In the case of NC(=O)c1ccc[n+]([C@@H]2O[C@H](CO)[C@@H](O)[C@H]2O)c1 [NR, nicotinamide riboside], the “myogenic colony formation (proliferation ability)” value (MuSCs [1]) is reported as “enhanced potential to form myogenic colonies”, the “dependence of NR effects on cell senescence on prohibitins” value (C2C12 myoblasts; C2C12, Phb1 and Phb2 shRNA knockdown with 6-hour NR treatment, overexpression, FIG. 5C,D) is reported as “PHB-dependent” and the “Phb1 and Phb2 expression” value (C2C12 myoblasts; C2C12 myoblasts, NR treatment, FIG. 5A) is reported as “induced Phb1 and Phb2 expression”. The “UPRmt markers (HSP60, CLPP)” value (C2C12 myoblasts; NR-treated C2C12 mouse myoblasts, FIG. 5A) was “similarly induced”, the “increase of MuSC numbers in vivo” value (MuSCs [2]; Mdx mice, NR 400 mg/kg/day in diet, FACS, FIG. 6B-D) was roughly 1.8 fold and the “MuSC numbers by PAX7 immunostaining” value (MuSCs [2]; NR-treated Mdx mice, FIG. 6E) was “confirmed by PAX7 immunostaining”. The “405/450 autofluorescence of MuSCs” value (MuSCs [3]) was “significant reduction in autofluorescence”.
